Marks after values point to notes of the source that are not given here.
How the values were obtained:
Type in all cases: cell-based
IL-22 mRNA expression = assay: Ex-vivo human skin model, IL-22 mRNA expression; details: for Percentage of inhibition of IL-22 mRNA expression: Th17 cytokine cocktail 24 h, RT-PCR
IL-17F mRNA expression = assay: Ex-vivo human skin model, IL-17F mRNA expression; details: for Percentage of inhibition of IL-17F mRNA expression: Th17 cytokine cocktail 24 h, RT-PCR
[1] = system: IL-17A secreted from antiCD3/CD28 stimulated Peripheral Blood Mononuclear cells (PBMC); assay: Peripheral Blood Mononucleocyte Cell Assay (PBMC Assay - IL-17); details: Homo sapiens, 48 h, IL-17A release, read-out: mean pIC50 (converted)
Experimental: Peripheral Blood Mononucleocvte Cell Assay (PBMC Assay—IL-17) […]
This assay is designed to measure levels of IL-17A secreted from antiCD3/CD28 stimulated frozen Peripheral Blood Mononuclear cells (PBMC) isolated from human blood with the aim of identifying inhibitors of IL-17A release.
2. The compounds for screening are dispensed into a master plate at 10 mM top concentration which are serially diluted 1:3 across 11 points in DMSO, then 500 nL is transferred into a 384-well flat-bottomed Greiner plate to which 50 uL of cell suspension is added: for the single shot screening the highest concentration of compound is 10^−5M; for 11 point full curve dose response studies the highest concentration is 10^−4 M.
As a low control, DMSO (as supplied, for example, by VWR) (final concentration 1%) in column 6 (16 points).
As a high control, 5-(4-fluorophenyl)-2-ureidothiophene-3-carboxamide (obtainable from, for example, Sigma) at a final concentration of 10^−4 M in DMSO should be used in column 18 (16 points).
9. Make the cell suspension at the concentration 8×10^5 cells/mL to give a final number of 40,000 cells/well.
1. Add well mixed CD3/CD28 Dynabeads (as supplied, for example, by Dynal) to achieve ratio bead:cell=2:1 (ie. a dilution of 1 in 20). Mix thoroughly.
2. Dispense the suspension into the 384 Assay Plates using Multidrop (50 uL per well). If the volume of cell suspension is large, mix the suspension after dispensing into every other plate.
3. Cover the plates with the lids and place them to the humidified incubator (37° C., 5% CO2) for 48 hours.
1. Transfer 10 uL of supernatants from assay plates to the MSD plates using Cybiwell. Ensure that all wells are covered with the solution. Tap the plate gently, if some of the wells are not covered with the supernatant.
3. Add 10 uL of MSD IL-17 detecting antibody using multidrop (1 ug/mL in D-PBS without Ca^2+ and Mg^2+ (supplied, for example, by Gibco)).
4. Cover the plates with adhesive foil and incubated with shaking for 3 hours at room temperature
7. Add 35 uL of MSD Read Buffer T×2 using multidrop.
8. Read plates on MSD MA6000 reader using the 384 well plate protocol as per manufacturer's instructions.

IL-17A mRNA expression = assay: Ex-vivo human skin model, IL-17A mRNA expression; details: for Percentage of inhibition of IL-17A mRNA expression: Th17 cytokine cocktail 24 h, RT-PCR
[2] = four different donors, compound 10 μM

Compound: CCc1ccc(N(CC(C)C)S(=O)(=O)c2ccc([C@@H](O)CN3CCOCC3)c(CO)c2)cc1 [Example E126, N-(4-ethylphenyl)-4-(1-hydroxy-2-morpholinoethyl)-3-(hydroxymethyl)-N-isobutylbenzenesulfonamide]
- Percentage of inhibition of IL-22 mRNA expression (IL-22 mRNA expression; Skin Donor 1, compound 10 μM): 67% *
- Percentage of inhibition of IL-22 mRNA expression (IL-22 mRNA expression; Skin Donor 2, compound 10 μM): 58%
- Percentage of inhibition of IL-22 mRNA expression (IL-22 mRNA expression; Skin Donor 3, compound 10 μM): 60%
- Percentage of inhibition of IL-22 mRNA expression (IL-22 mRNA expression; Skin Donor 4, compound 10 μM): 58% *
- gene transcription of il22 (result in words) (IL-22 mRNA expression; [2]): inhibited
- Percentage of inhibition of IL-17F mRNA expression (IL-17F mRNA expression; Skin Donor 1, compound 10 μM): 67% *
- Percentage of inhibition of IL-17F mRNA expression (IL-17F mRNA expression; Skin Donor 2, compound 10 μM): 89% *
- Percentage of inhibition of IL-17F mRNA expression (IL-17F mRNA expression; Skin Donor 3, compound 10 μM): 67% *
- Percentage of inhibition of IL-17F mRNA expression (IL-17F mRNA expression; Skin Donor 4, compound 10 μM): 74% *
- gene transcription of il17f (result in words) (IL-17F mRNA expression; [2]): inhibited
- IC50 [1]: 794 nM
- Percentage of inhibition of IL-17A mRNA expression (IL-17A mRNA expression; Skin Donor 1, compound 10 μM): 76% *
- Percentage of inhibition of IL-17A mRNA expression (IL-17A mRNA expression; Skin Donor 2, compound 10 μM): 93% *
- Percentage of inhibition of IL-17A mRNA expression (IL-17A mRNA expression; Skin Donor 3, compound 10 μM): 60% *
- Percentage of inhibition of IL-17A mRNA expression (IL-17A mRNA expression; Skin Donor 4, compound 10 μM): 85% *
- gene transcription of il17a (result in words) (IL-17A mRNA expression; [2]): inhibited
